Experimental data taken from US20170307590A1, “INHIBITORS OF MALARIAL AND HUMAN GLUCOSE TRANSPORTERS AND METHODS FOR IDENTIFYING THE INHIBITORS” (Washington University in St. Louis, priority 2016, published 2017).
Read-outs that look alike come from different tables or passages of the source.

Experiments:
parasites = details: cited from earlier work
PfHT [1] = target: T1, PfHT (Plasmodium falciparum, UniProt O97467); assay: Heterologous FRET glucose sensor screening assay in PfHT-FLIP HEK293 cells; assay type: cell-based; details: for inhibition at 10 µM: HEK293, FRET ratio, vehicle 100%, 200 μM CB 0%
T1 construct: endogenous in cells; host or cells: P. falciparum 3D7 parasites freed from human erythrocytes
T1 sequence (O97467 1-504): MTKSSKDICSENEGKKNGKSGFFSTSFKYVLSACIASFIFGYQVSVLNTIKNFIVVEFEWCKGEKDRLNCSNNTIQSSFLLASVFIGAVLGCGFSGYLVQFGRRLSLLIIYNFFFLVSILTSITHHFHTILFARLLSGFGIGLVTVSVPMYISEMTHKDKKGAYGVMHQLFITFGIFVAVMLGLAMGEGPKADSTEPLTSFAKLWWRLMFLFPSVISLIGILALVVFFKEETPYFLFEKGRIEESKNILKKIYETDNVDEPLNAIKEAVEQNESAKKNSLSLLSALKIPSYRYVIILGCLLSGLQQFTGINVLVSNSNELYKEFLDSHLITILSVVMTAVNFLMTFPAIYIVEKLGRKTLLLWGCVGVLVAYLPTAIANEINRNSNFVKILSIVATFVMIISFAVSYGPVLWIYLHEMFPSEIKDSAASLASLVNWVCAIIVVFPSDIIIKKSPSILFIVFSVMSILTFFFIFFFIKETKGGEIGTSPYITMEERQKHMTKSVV
Excerpt: HEK293 cells were transfected with pcDNA3.1 FLII12Pglu-700uDelta6 (Addgene, Cambridge, Mass.), containing the FRET glucose sensor (HEK293-FLIP) using Optifect Reagent (Life Technologies, Waltham, Mass.) according to manufacturer's specifications. Cells that stably integrated the gene were selected using G418 (Sigma Aldrich, St. Louis, Mo.) and highest expressers were identified using Fluorescence Activated Cell Sorting (FACS). These cells were then stably transfected with PfHT, human GLUT1 (hGLUT1), human GLUT2 (hGLUT2), human GLUT3 (hGLUT3) or human GLUT4 (hGLUT4) DNA in the pcDNA 3.1(−) hygro plasmid (Life Technologies). Single clones were selected by comparing their ability to transport radiolabeled glucose. In all cell lines except for HEK293 overexpressing hGLUT1 cells, native hGLUT1 was knocked down using shRNA.
96-well plates were pretreated with 25 μg/ml Polyethylenimine (PEI, 750 kDa, Sigma Aldrich) solution containing 150 mM NaCl to maintain cell adhesion during washing steps. After 20 min incubation at room temperature (RT), PEI was aspirated and wells were air dried for 5 min. PfHT-FLIP cells were plated 48 h prior to the assay in black opaque 96-well plates (Greiner Bio-One, Monroe, N.C.), which were previously treated with PEI, at 30,000 cells/well. After cell plating, plates were then left in the sterile hood at RT for 45 min before transfer to the incubator to reduce edge effects. Compound screening was performed using the integrated and automated screening system (Beckman Coulter, Brea, Calif.) at the Washington University High Throughput Screening Core. SAMI EX software (Beckman Coulter) was used to design and execute the screening protocol. The Malaria Box (Medicines for Malaria Venture, Geneva, Switzerland) compound library was prediluted in glucose-free HEPES buffered saline solution (HBSS) (146 mM NaCl, 4.7 mM KCl, 0.6 mM MgSO4, 1.6 mM NaHCO3, 0.13 mM NaH2PO4, 2.5 mM CaCl2, 20 mM HEPES, pH 7.3) using the BiomekFX liquid handler (Beckman Coulter). A 1:100 dilution of 1 mM stock solution was prepared for 10 μM final concentration.
To initiate the screening assay, cells were washed twice with 150 μl HBSS per well using the ELx405 Plate Washer (Biotek, Winooski, Vt.). Cells were starved in HBSS for 30 min at RT, followed by aspiration of the HBSS from cell plates using the ELx405 Plate Washer. Cells were treated with 45 μl of diluted compound using the BiomekFX (with 3 replicate cell plates for each library plate) and incubated for 6 min at RT. To initiate the uptake, 5 μl of 100 mM glucose was added to the wells (final concentration 10 mM) using a Multidrop384 dispenser (Thermo Fisher Scientific, Waltham, Mass.). After incubation at RT for 120 min, fluorescence was measured using the 2102 EnVision Multilabel Plate Reader (Perkin Elmer, Waltham, Mass.) at excitation 436 nm (CFP) and emissions 485 nm (CFP) and 535 nm (YFP).
The Malaria Box was screened at 10 μM drug concentrations in triplicate and selected hits that decreased the FRET ratio by more than 30% with vehicle-treated cells set to 100% and cells treated with 200 μM CB set to 0%. Since fluorescent compounds have the potential to generate false positive hits, the FRET ratio of compounds without cells present was determined. After false positive elimination, 5 compounds were identified as primary hits. Hit confirmation was ascertained by determining the IC50 for glucose uptake into isolated P. falciparum parasites from blood culture using radiolabeled D-glucose. […] Compound MMV020548 was included for comparison as it was previously identified from the same library. The similar IC50 observed in the freed parasite glucose uptake assay and in vitro growth inhibition assay for MMV009085, was consistent with the interpretation that this compound is acting through PfHT blockage to inhibit parasite growth (Table 3) although, alternative targets in the parasite might be inhibited as well.

[2] = tested on: human insulin-responsive glucose transporter GLUT4; details: cited from earlier work
hGLUTs 1-4 = assay: Uptake of [3H]-2-DOG by HEK293 cells overexpressing PfHT or hGLUTs 1-4; assay type: cell-based, human
Method: To establish selectivity of these hits for PfHT over human orthologues, the inhibition of GLUTs 1, 2, 3 and 4 was cross-validated by the confirmed hits. […] The inhibitory effect of the five confirmed hits was determined on all four human class I GLUTs at the IC50 concentration for PfHT-mediated glucose uptake inhibition.

P. falciparum = details: values provided with the malaria box; read-out: EC50 for P. falciparum growth inhibition Malaria box; cited from earlier work
PfHT [3] = target: T1, PfHT; assay: Uptake of [14C]-2-DOG into isolated (freed) P. falciparum parasites; assay type: cell-based
Method: P. falciparum strain 3D7 was cultured in 100 mm tissue culture dishes (Techno Plastic Products, Trasadingen Switzerland) in a 2% suspension of human erythrocytes and RPMI 1640 medium until reaching >5% parasitemia. Cells were pelleted via centrifugation and resuspended in RPMI. To determine the uptake of radiolabeled glucose into the parasite, it was isolated from the erythrocyte while removing uninfected erythrocytes. Uptake of [^14C]-2-DOG into isolated parasites was determined at RT using the methods described previously(19). Test compounds were added 5 min prior to the addition of [^14C]-2-DOG (0.2 μCi/ml final concentration). Uptake was quenched after 2 min Data were fit by nonlinear regression analysis using GraphPad Prism software. Uptake of [^3H]-2-DOG into HEK293-FLIP cell lines was measured in HEPES-buffered saline at RT for 4 min Data were fit by nonlinear regression analysis using GraphPad Prism software.

PfHT [4] = target: T1, PfHT; assay: Glucose uptake into PfHT overexpressing L. mexicana parasites (Ortiz et al.); assay type: cell-based
P. falciparum strain 3D7 = assay: P. falciparum growth inhibition assay (PicoGreen DNA content); assay type: cell-based; details: Plasmodium falciparum; for EC50: intraerythrocytic forms, strain 3D7
Method: P. falciparum strain 3D7 was obtained from the Malaria Research and Reference Reagent Resource Center (MR4). P. falciparum parasites were cultured in a 2% suspension of human erythrocytes and RPMI 1640 (Sigma Aldrich) medium supplemented with 27 mM sodium bicarbonate, 11 mM glucose, 5 mM HEPES, 1 mM sodium pyruvate, 0.37 mM hypoxanthine, 0.01 mM thymidine, 10 μg/ml gentamicin, and 0.5% Albumax (Gibco, Waltham, Mass.) at 37° C., 5% O2/5% CO2/90% N2 atmosphere.
Asynchronous P. falciparum cultures were diluted to 1% parasitemia and were treated with compounds at concentrations ranging from 9.8 nM-20 μM. Growth inhibition assays were performed in 100 μl cultures in opaque 96-well plates. Parasite growth was quantified after 3 days by measuring DNA content using PicoGreen (Life Technologies). Fluorescence was measured by a FLUOstar Omega microplate reader (BMG Labtech, Cary, N.C.) at 485 nm excitation and 528 nm emission. IC50 values were calculated by nonlinear regression analysis using GraphPad Prism software.

PfHT [5] = target: T1, PfHT; details: cited from earlier work
[6] = IC50 PfHT in parasites, Table 1
[7] = 72 h, P. falciparum strain 3D7, growth after 3 days, read-out: IC50 3D7 in vitro
[8] = IC50 for glucose uptake in freed parasites, from dose-response curves of FIG. 4
[9] = PfHT overexpressing L. mexicana, read-out: IC50 PfHT (determined by Ortiz et al. (15) in L. mexicana)

Compound	inhibition at 10 µM (PfHT [1]) [%]	EC50 (P. falciparum) [nM]	IC50 (PfHT [3]; [6]) [µM]	IC50 (P. falciparum strain 3D7; [7]) [nM]	EC50 (P. falciparum strain 3D7) [nM]	glucose uptake versus proline transport in PfHT-overexpressing Leishmania mexicana (PfHT [5])	IC50 (PfHT [3]; [8]) [µM]	further results
Cc1cccc(C)c1OCC(=O)N[C@@H](Cc1ccccc1)[C@@H](O)C[C@H](Cc1ccccc1)NC(=O)[C@H](C(C)C)N1CCCNC1=O [lopinavir]								IC50 (parasites): 16 µM; FRET ratio with addition of D-glucose (PfHT [1]; PfHT-FLIP cells, FIG. 2a): decreased FRET ratio; selectivity GLUT4 over PfHT [2]: higher selectivity for the human insulin-responsive glucose transporter GLUT4 over PfHT
O=C1c2ccc3c4c(ccc(c24)C(=O)N1CCCCO)C(=O)N(CCCCO)C3=O [MMV009085]	87	795	1.8	987	987	selectively inhibit glucose uptake, but not proline transport		selectivity for PfHT over human orthologues (IC50s for glucose uptake inhibition) (hGLUTs 1-4): more than 10 fold; IC50 (PfHT [3]; IC50 for PfHT-mediated glucose uptake): 2.6 µM; difference in potency by the two assays (parasite growth vs L. mexicana PfHT overexpression) (PfHT [4]): 20 fold; IC50 (P. falciparum strain 3D7; 3D7, read-out: IC50 malaria parasite growth assay): 990 nM; IC50 (PfHT [5]; read-out: IC50 L. mexicana PfHT overexpression assay): 51 nM
COc1cc(C(=O)Nc2ccc(-c3nc4ccccc4[nH]3)cc2)cc(OC)c1OC [MMV665898]	64	1220	6.2	487	487		5.3	
CC(C)(C)C(=O)Nc1ccc(C(=O)Nc2cccc(-c3nc4ccccc4[nH]3)c2)cc1 [MMV665879]	49		6.6	390	390	selectively inhibit glucose uptake, but not proline transport	8.3	IC50 (PfHT [5]; [9]): 2700 nM
CN(C)c1ccc(C(O)(c2ccc(N(C)C)cc2)c2ccc(N(C)C)cc2)cc1 [MMV665941]	31	255	13.3	26	26		19.6	inhibition of glucose uptake at the highest concentration tested (PfHT [3]; FIG. 4): only partial inhibition
CCN1CCN(Cc2ccc(NC(=O)c3cc4ccc5cccnc5c4[nH]3)cc2)CC1 [MMV020548]	21	361	21.3	114	114	selectively inhibit glucose uptake, but not proline transport	15.5	IC50 (PfHT [5]; [9]): 3500 nM
Cc1ccc2nc(C)cc(Nc3cccc(C(F)(F)F)c3)c2c1 [MMV000326]	49	1170	139	344	344		286	
C=C1[C@@H](C)[C@H]2[C@H](Cc3ccccc3)NC(=O)[C@]23OC(=O)/C=C/[C@H](O)CCC[C@@H](C)C/C=C/[C@H]3[C@@H]1O [CB, cytochalasin B, reference compound]								maximal decrease in FRET ratio (PfHT [1]; 50 μM, PfHT-FLIP cells): 75%; inhibition of D-glucose uptake (PfHT [1]; 200 μM, PfHT-FLIP cells): complete inhibition
